Laboratory results as given in patent publication EP2181708A1, “Use of Valproate for reducing CHOP levels, particularly in a mammal having SCI” (Universitat Autonoma de Barcelona, priority 2008, dated 2010).

System: tibialis anterior muscle
Assay: Electrophysiological tests (H/M ratio, motor evoked potentials) after spinal cord contusion
Type: in vivo, Sprague-Dawley rats
Procedure: Adult females Sprague-Dawley rats aged 11 weeks (220-250 g) were anesthetized with pentobarbital (40 mg/kg i.p.). When unresponsive, the vertebral column was exposed and a laminectomy carried out at T8-T9 levels. Rostral T7 and caudal T10 vertebral bodies were clamped with Adson stabilizing forceps, and carefully adjusted to level the spinal cord in the horizontal plane. A contusion injury was performed using the Infinite Horizon impactor device (Precision Scientific Instruments, Lexington, KY). The stainless steel impounder tip was placed at 3-4 mm above the exposed spinal cord, and then a fast impact produced applying forces of 150 or 250 kilodynes (KDyn) to the exposed spinal cord. The wound was sutured with 5-0 silk thread in the muscular plane and the skin was closed with small clips and disinfected with povidone iodine solution. Sham-operated animals received the same surgical procedure but sustained no impact injury; the spinal cord was left exposed for 5 min. The animals were maintained in a warm environment until full recovery, and received preventive antibiotic (amoxicyline) and analgesic (buprenorphine) treatment. All animals were kept under standard conditions of light and temperature and fed with food and water ad libitum. The procedures involving animals were approved by the Ethics Committee of our institution, and followed the European Communities Council Directive 86/609/EEC.
VPA was intraperitoneally administered at an initial dose of 150 mg/kg by 3 h after surgery, and then a dose of 300 mg/Kg either every 24 h or every 12 h during the first week post-surgery, following by a dose of 300 mg/Kg every 24 h for the next two weeks. […]
Electrophysiological tests were performed at 14 and 28 days after operation. […] The H/M amplitude ratio was calculated. Motor evoked potentials (MEPs) were elicited by transcranial stimulation with two needle electrodes placed subcutaneously over the skull, delivering pulses of 0.1 ms duration and 25 mA intensity, and recorded from the tibialis anterior muscle (Garcia-Alias et al., 2003).

CCCC(CCC)C(=O)O [VPA, 2-propylpentanoic acid]
mean amplitudes of MEPs (14 and 28 days postlesion, vs group control): slightly higher
mean H/M amplitude ratio (14 days, injured rats): about 9%
mean H/M amplitude ratio (28 days, control group 20%): 16%
